In paper PMC7203682, “Pharmacological Inhibition of MALT1 Protease Leads to a Progressive IPEX-Like Pathology” (Frontiers in Immunology, 2020):
Like-named read-outs stand apart in the source and are kept apart here.

Tests used:
[1] = test system: female Lewis rat; conditions: in vivo, 10 mg/kg
Description: Freund’s incomplete adjuvant (IFA, Difco, Detroit, United States) was mixed with porcine collagen type II (Chondrex, Redmond, United States) using a polytron on ice. The final solution consisted of 200 μg of collagen in 200 μl of IFA. […] of this was injected intradermally (i.d.) into the base of the tail of an isofluorane narcotized female Lewis rat. After 7 days, the isofluorane narcotized animal was boosted i.d. with a fresh batch of the immunization solution in an adjacent site at the base of the tail (100 μg in 100 μl). Paw swelling and body weight were taken three times per week as described below.
There were 10 animals per group for the compound treated groups and n = 9 rats for the vehicle group. […] Hind paws were taken for histological analysis.
There were five animals per group.
All animal studies were performed according to current Swiss animal protection laws, issued by the Cantonal Veterinary Office Basel-Stadt, Switzerland. Body weight of the animals was assessed regularly throughout the study. Mean values of groups were calculated. Scoring of the paw swelling was done on an arbitrary scale of 0–12 per rat, evaluating each hind paw in the front with 0–3 and in the ankle with 0–3, thus obtaining a maximal score of 6 per paw. The paw scores were summed up to obtain a score for each individual animal. The individual sum scores of all the animals were averaged and SEMs were calculated. The scoring system used was: 0 = no detectable sign of inflammation; 1, light swollen region; 2, more obviously swollen region; 3, ankylosis or severely swollen region.
Serum obtained at the end of the study, was diluted 1:10000 and 1: 100000.
Three-μm thick sections were stained with Giemsa and Safranin O (prophylactic setting) or hematoxylin and eosin (therapeutic setting).
Histopathological changes were blindly scored on a scale of 0 (normal) to 3 (severe changes). Following parameters were assessed: inflammatory cell infiltrates, joint damage and proteoglycan loss ([44]).

[2] = molecular target: MALT1 (Canis lupus familiaris, UniProt A0A8I3RR14); assay: cell-based
Description: Human whole blood was obtained from healthy volunteers by venipuncture at the Novartis Basle Health care unit. Blood was pooled into two 50 ml Falcon tubes and filtered using a 100 μm (or 70 μm)-cell strainer. Serial dilutions of compounds (10 mM DMSO stock) were diluted again 1/10 in X-VIVO medium (Lonza Biosciences) and 500 μl of whole blood was mixed with 55 μl of X-VIVO/compound mixes and pre-incubated for 1 h at 37°C with shaking (∼600 rpm). After the pre-incubation time 200 μl of the blood/compound mixes in duplicates were transferred to a new flat bottom plates and PMA (final: 100 ng/ml)/anti-CD28 (final: 300 ng/ml) solution was added. Incubation was performed overnight at 37°C + 5% CO2. Blood plates were spun for 10 min at 470 g and 100 μl of the resulting serum was analyzed for IL-2 levels using MesoScale Discovery kits (MSD), according to the manufacturer’s protocol. […] Similar protocols were implemented for PBMC and blood from rat and dog species.

[3] = blood compound concentrations in mice; format: in vivo, C57BL/6 mice; conditions: mouse; for concentration at 1 h: C57BL/6, blood, ip, read-out: [Mepazine] blood at 1h (peak); for [Mepazine] blood at 15h (trough): BQL: below quantification limit
[4] = test system: Foxp3+ Treg cells; assay: Treg frequency and functional markers in mice treated 12 days; format: in vivo, C57BL/6 mice; conditions: 8 mg/kg BID i.p. or 16 mg/kg QD i.p.
Description: Eight-week-old C57BL/6 mice (Charles River France) were treated from day 0 to day 12, either via p.o. […] (mepazine) dosing. Mepazine acetate (Chembridge, San Diego, CA, United States) was solubilized and dosed in PEG200/water (30/70 v/v). […] Some animals were euthanized at the end of the treatment period for analysis of lymphoid organs, while other animals were kept until day 19 to analyze the recovery of Treg cells after cessation of the treatment. […] Blood samples were collected along the treatment and recovery period to monitor changes in Tregs levels over time. Treg frequencies in blood and spleen as well as the expression of CTLA-4, TNFR2, KLRG1, and CD25 on Tregs was assessed by flow cytometry (see below). All animal studies were performed in accordance with the animal experimentation laws and guidelines laid down by the Swiss Federal and Cantonal Authorities. […] Splenocytes were analyzed at scheduled necropsies. […] CTLA-4 expression was assessed intra- and extracellularly.

Chain of MALT1 (A0A8I3RR14 1-857): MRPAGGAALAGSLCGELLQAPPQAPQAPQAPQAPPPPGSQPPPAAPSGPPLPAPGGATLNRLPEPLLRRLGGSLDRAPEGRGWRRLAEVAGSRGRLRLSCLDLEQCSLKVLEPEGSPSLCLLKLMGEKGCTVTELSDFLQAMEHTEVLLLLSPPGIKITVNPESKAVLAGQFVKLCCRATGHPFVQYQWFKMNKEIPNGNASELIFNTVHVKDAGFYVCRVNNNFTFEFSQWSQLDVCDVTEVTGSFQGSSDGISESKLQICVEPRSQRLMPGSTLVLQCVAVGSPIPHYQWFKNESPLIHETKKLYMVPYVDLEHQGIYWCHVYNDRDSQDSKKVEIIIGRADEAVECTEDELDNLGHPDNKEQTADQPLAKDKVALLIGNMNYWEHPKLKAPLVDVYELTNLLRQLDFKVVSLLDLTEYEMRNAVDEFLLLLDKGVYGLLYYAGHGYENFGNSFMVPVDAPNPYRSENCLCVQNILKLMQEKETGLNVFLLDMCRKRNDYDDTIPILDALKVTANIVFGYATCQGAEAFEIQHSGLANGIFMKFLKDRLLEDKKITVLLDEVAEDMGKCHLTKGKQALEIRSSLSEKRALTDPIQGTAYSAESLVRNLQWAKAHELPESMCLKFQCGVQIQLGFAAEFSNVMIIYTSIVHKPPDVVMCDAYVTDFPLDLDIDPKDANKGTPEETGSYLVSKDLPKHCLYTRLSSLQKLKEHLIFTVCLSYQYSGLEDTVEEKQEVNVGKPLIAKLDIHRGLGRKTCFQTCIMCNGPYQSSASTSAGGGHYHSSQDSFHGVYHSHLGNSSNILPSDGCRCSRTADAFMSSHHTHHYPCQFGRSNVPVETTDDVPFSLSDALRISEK

| concentration at 1 h ([3]; 8 mg/kg BID i.p.) | concentration at 1 h ([3]; 16 mg/kg QD i.p.) | [Mepazine] blood at 15h (trough) ([3]; 8 mg/kg BID i.p.) | [Mepazine] blood at 15h (trough) ([3]; 16 mg/kg QD i.p.) | Compound | histo-pathological score of hind paw: Inflammation [1] | histo-pathological score of hind paw: Joint damage [1] | histo-pathological score of hind paw: Proteoglycan loss [1] | anti-collagen antibody production ([1]; po) | joint histology scores ([1]; po) | paw swelling ([1]; po) | IC50 [2] | expression of Treg activation markers [4] | frequency of Treg cells [4] |
| --- | --- | --- | --- | --- | --- | --- | --- | --- | --- | --- | --- | --- | --- |
| – | – | – | – | CO[C@@H](C)c1c(NC(=O)Nc2ccnc(C(F)(F)F)c2)cnc2cc(Cl)nn12 [MLT-943] | 0 | 0 | 0 | suppressed | normalized | fully prevented | 92 nM | – | – |
| 270 nM | 770 nM | BQL | BQL | CN1CCCC(CN2c3ccccc3Sc3ccccc32)C1 (stereo not shown) [mepazine] | – | – | – | – | – | – | – | impacted neither | impacted neither |
